Measured values published in patent US7470671B2, “Thioxylose compounds, preparation method thereof, pharmaceutical compositions containing same and use thereof in therapeutics” (Laboratoire Fournier, priority 2003, dated 2008).
Where a name gives a salt, the structure may show the parent alone. Read-outs that look alike come from different tables or passages of the source.

Test system: venous thrombosis
Assay: venous thrombosis test in the rat (venous stasis under hypercoagulation with factor Xa, Wessler technique)
Type: in vivo
Settings: Wistar male rats
Method: The antithrombotic activity of the compounds according to the invention was studied in vivo in the rat by means of a test that reproduces a venous thrombosis.
The venous thrombosis was induced according to the protocol described in Thromb. Haemost., 1992, 67(1), 176-179. The intravenous or oral activity was studied according to the following operating protocol:
The experiments are performed on non-fasted Wistar male rats weighing 250 to 280 g, divided into groups of 10 animals each. The test products are administered either orally (tubage) dissolved or suspended in isotonic solution, or by intravenous injection dissolved in isotonic solution or in a PEG 400/water mixture. The concentration of the compounds is calculated so that the amount of solution absorbed is 2 ml/kg by oral administration and 1 ml/kg by intravenous injection. A thrombosis is induced at a time T (0.5, 2, 4 or 8 hours) after administration of the product, and the thrombus formed is removed and weighed. To induce this thrombosis, a venous stasis is created under hypercoagulation according to the technique described by WESSLER (J Applied Physiol., 1959, 943-946), the hypercoagulating agent used being a solution of activated factor X (Xa) having a concentration of 7.5 nKat/kg, supplied by Biogenic (Montpellier). The venous stasis is effected exactly 15 seconds after injection of the hypercoagulating agent. The activity of the test compounds was checked at different doses after they had been administered either orally (p.o.) or intravenously (i.v.). The thrombosis was induced 2 hours or 4 hours after oral administration of the compound and 2 hours after intravenous administration of the compound.

[1] = Rattus norvegicus, iv, 2 h, intravenous, thrombosis induced 2 h after administration, read-out: Activity % (percentage inhibition of thrombus formation)
[2] = Rattus norvegicus, po, 4 h, oral, thrombosis induced 4 h after administration, read-out: Activity % (percentage inhibition of thrombus formation)
[3] = intravenous, dose 2.5 mg/kg, thrombosis induced 2 h after administration
[4] = Rattus norvegicus, po, 2 h, oral, thrombosis induced 2 h after administration, read-out: Activity % (percentage inhibition of thrombus formation)

CC(=O)O[C@@H]1[C@@H](OC(C)=O)[C@H](OC(C)=O)CS[C@H]1Oc1cccnc1 [Example 1A, 3-Pyridinyl 2,3,4-tri-O-acetyl-5-thio-β-D-Xylopyranoside Methanesulfonate]
inhibition in vivo at 4 mg/kg [1]: 83% | inhibition in vivo at 6 mg/kg [2]: 51%

O[C@@H]1[C@@H](O)[C@H](Oc2cccnc2)SC[C@H]1O [Example 2, 3-Pyridinyl 5-Thio-β-D-Xylopyranoside]
inhibition in vivo at 2.5 mg/kg (Rattus norvegicus, iv, 2 h, intravenous, dose 2.5 mg/kg, thrombosis induced 2 h after administration, read-out: Activity % (percentage inhibition of thrombus formation)): 72% | inhibition in vivo at 1.5 mg/kg (Rattus norvegicus, po, 4 h, oral, dose 1.5 mg/kg, thrombosis induced 4 h after administration, read-out: Activity % (percentage inhibition of thrombus formation)): 67% | inhibition in vivo at 3 mg/kg [2]: 91%

CS(=O)(=O)O.O[C@@H]1[C@@H](O)[C@H](Oc2cccnc2)SC[C@H]1O [Example 2A, 3-Pyridinyl 5-Thio-β-D-Xylopyranoside Methanesulfonate]
inhibition in vivo at 5 mg/kg [1]: 94% | inhibition in vivo at 4.2 mg/kg (Rattus norvegicus, po, 2 h, oral, dose 4.2 mg/kg, thrombosis induced 2 h after administration, read-out: Activity % (percentage inhibition of thrombus formation)): 96% | Activity % (percentage inhibition of thrombus formation) [3]: 68%

Cl.O[C@@H]1[C@@H](O)[C@H](Oc2cccnc2)SC[C@H]1O [Example 2C, 3-Pyridinyl 5-Thio-β-D-Xylopyranoside Hydrochloride]
inhibition in vivo at 4 mg/kg [1]: 95% | inhibition in vivo at 6 mg/kg [2]: 55% | Activity % (percentage inhibition of thrombus formation) [3]: 72%

Cc1ncccc1O[C@@H]1SC[C@@H](O)[C@H](O)[C@H]1O [Example 12, 2-Methyl-3-Pyridinyl 5-Thio-β-D-Xylopyranoside]
inhibition in vivo at 3 mg/kg [2]: 52%

O[C@@H]1[C@@H](O)[C@H](Oc2cncc(Cl)c2)SC[C@H]1O [Example 18, 5-Chloro-3-Pyridinyl 5-Thio-β-D-Xylopyranoside]
inhibition in vivo at 3 mg/kg [2]: 46%

N#Cc1ncccc1O[C@@H]1SC[C@@H](O)[C@H](O)[C@H]1O [Example 20, 2-Cyano-3-Pyridinyl 5-Thio-β-D-Xylopyranoside]
inhibition in vivo at 3 mg/kg [2]: 50%

COC(=O)O[C@@H]1[C@@H](OC(=O)OC)[C@H](OC(=O)OC)CS[C@H]1Oc1cccnc1 [Example 31A, 3-Pyridinyl 2,3,4-Tris-O-(Methoxycarbonyl)-5-Thio-β-D-Xylopyranoside Hydrochloride]
inhibition in vivo at 5.6 mg/kg (Rattus norvegicus, po, 4 h, oral, dose 5.6 mg/kg, thrombosis induced 4 h after administration, read-out: Activity % (percentage inhibition of thrombus formation)): 63%

COC(=O)O[C@@H]1[C@@H](OC(=O)OC)[C@H](OC(=O)OC)CS[C@H]1Oc1cccnc1 [Example 31B, 3-Pyridinyl 2,3,4-Tris-O-(Methoxycarbonyl)-5-Thio-β-D-Xylopyranoside Methanesulfonate]
inhibition in vivo at 5 mg/kg [1]: 88% | inhibition in vivo at 8 mg/kg (Rattus norvegicus, po, 4 h, oral, dose 8 mg/kg, thrombosis induced 4 h after administration, read-out: Activity % (percentage inhibition of thrombus formation)): 94%

CC(=O)O[C@@H]1[C@@H](OC(C)=O)[C@H](OC(C)=O)CS[C@H]1Oc1cccnc1Cl [Example 36, 2-Chloro-3-Pyridinyl 2,3,4-Tri-O-Acetyl-5-Thio-β-D-Xylopyranoside]
inhibition in vivo at 6 mg/kg [4]: 91%

O[C@@H]1[C@@H](O)[C@H](Oc2cccnc2Cl)SC[C@H]1O [Example 37, 2-Chloro-3-Pyridinyl 5-Thio-β-D-Xylopyranoside]
inhibition in vivo at 6 mg/kg [4]: 96%

O[C@@H]1[C@@H](O)[C@H](Oc2ccc(C(F)(F)F)nc2)SC[C@H]1O [Example 41, 6-(Trifluoromethyl)-3-Pyridinyl 5-Thio-β-D-Xylopyranoside]
inhibition in vivo at 6 mg/kg [4]: 97%

O[C@@H]1[C@@H](O)[C@H](Oc2cncc(F)c2)SC[C@H]1O [Example 49, 5-Fluoro-3-Pyridinyl 5-Thio-β-D-Xylopyranoside]
inhibition in vivo at 6 mg/kg [4]: 90%

CCCC(=O)O[C@@H]1[C@@H](OC(=O)CCC)[C@H](OC(=O)CCC)CS[C@H]1Oc1cccnc1 [Example 93, 3-Pyridinyl 2,3,4-Tri-O-Butanoyl-5-Thio-β-D-Xylopyranoside]
inhibition in vivo at 6 mg/kg [4]: 81%
